The text below walks through data of the METLIN SMRT retention time set (Domingo-Almenara et al. 2019).

A short description of the series: gradient 5% acetonitrile 3 min, to 50% in 2 min, to 85% in 15 min, held 3 min, 100 µL/min. Particulars: column: Zorbax Extend-C18 2.1 x 50 mm; eluents: water / acetonitrile, 0.1% formic acid. In short, it runs like this:
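Over 3 months, pure standards in mixtures of ~100 molecules were run by HPLC coupled to a quadrupole time-of-flight mass spectrometer in positive and negative ionization mode. The column was a Zorbax Extend-C18 (2.1 × 50 mm, 1.8 μm) at 100 μL/min, eluted with water and acetonitrile each holding 0.1% formic acid, with 40 μL dead and 900 μL dwell volumes. Retention time was determined from adduct peaks chosen by software and checked manually.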
On to `COc1ccccc1OC(C)C(=O)N1CCN(c2cc(C)n3cnnc3n2)CC1` (stereo not given), for which the RP-LC retention time was 599 s.

The compound `CCCN1CCN(C(=O)C2CCN(S(=O)(=O)c3ccc4c(c3)NC(=O)C(C)S4)CC2)CC1` (stereo not given) showed an RP-LC retention time of 593 s.

In turn, `O=C(Nc1ccc(N2CCOCC2)cc1)c1cc(C2CC2)n2nccc2n1` gave an RP-LC retention time of 846 s.

`Cc1cc(=O)n(CC(=O)Nc2ccc(Cl)cc2)c(N2CCC(C)CC2)n1` returned an RP-LC retention time of 758 s.

Turning to `CCOC(=O)c1cccc(Nc2c(-c3ccc(Cl)cc3)nc3cnccn23)c1`, the RP-LC retention time stood at 992 s.

`CCn1ncc(NC(=O)CCc2ccccc2)c(N2CCOCC2)c1=O` showed an RP-LC retention time of 800 s.

With `CCn1ncc(NC(=O)c2ccccc2OC)c(N2CCOCC2)c1=O`, the RP-LC retention time was found to be 829 s.

With `CC(C)NC(=O)c1ccc2c(c1)CC(=O)N2C`, the RP-LC retention time was 616 s.

The compound `CCc1cc(=O)n(CC(=O)Nc2ccccc2CC)c(N2CCOCC2)n1` had an RP-LC retention time of 784 s.

`CCc1ccc(NC(=O)Cn2nc(C(=O)N3CCCC3)c3ccccc32)cc1` returned an RP-LC retention time of 917 s.

As for `CC(C)C(=O)Nc1cccn2nc(C3CCC3)nc12`, the RP-LC retention time came out at 802 s.

`CC(=O)Nc1nsc(N2CCC(C(=O)NCc3ccc(F)cc3)CC2)n1` had an RP-LC retention time of 649 s.

With `N#C/C(=C\c1cccnc1)c1ccc(Br)cc1`, the RP-LC retention time stood at 999 s.

As to `Cc1ccc(C)c(N2CCN(S(=O)(=O)c3ccc(-c4nnc(C5CC5)o4)o3)CC2)c1`, the RP-LC retention time is 1130 s.

Take `N#Cc1cccc(-c2cn3c(n2)N(C(=O)COc2ccccc2)CCC3)c1`: the RP-LC retention time was 961 s.

In turn, `COc1ccc(NC(=O)C2CCN(S(=O)(=O)c3cc(-c4noc(C)n4)cs3)CC2)cc1Cl` showed an RP-LC retention time of 946 s.

Turning to `COCCCNC(=O)C1c2cc(OC)c(OC)cc2C(=O)N(C)C1c1ccc(OC)cc1` (stereo not given), the RP-LC retention time stood at 685 s.

Take `COc1ccc(C2CC(=O)Nc3c(C(=O)O)cn(-c4cccc(C(F)(F)F)c4)c32)cc1OC` (stereo not given): the RP-LC retention time is 780 s.

Compound `O=C(CN1C(=O)COc2ccc(C(=O)N3CCc4ccccc43)cc21)N1CCCC1` had an RP-LC retention time of 760 s.

As to `CC(C)CNS(=O)(=O)c1cccc2cnccc12`, the RP-LC retention time stood at 647 s.

The compound `O=C(Nc1ccc(-n2cnc(C(=O)N3CCN(c4ccccc4)CC3)c2)nc1)C1CC1` had an RP-LC retention time of 726 s.

`CCN1C(=O)COc2ccc(-c3nc(NC(=O)c4ccncc4)sc3C)cc21` registered an RP-LC retention time of 768 s.

As for `CCOc1ccc(-n2nc(CO)c(C(=O)NC)n2)cc1`, the RP-LC retention time came to 763 s.

Consider `O=C(CN1C(=O)NC2(CCCCC2)C1=O)Nc1ccccc1Cl`, for which the RP-LC retention time was found to be 764 s.

Compound `COc1ccc(C)c2sc(NC(=O)c3cc(C)no3)nc12` showed an RP-LC retention time of 800 s.

Compound `Cc1ccc(F)cc1S(=O)(=O)N1CCCC(C)(C(=O)NCc2cccc(F)c2)C1` (stereo not given) gave an RP-LC retention time of 1020 s.

In turn, `CC(=O)c1cccc(NC(=O)Cn2cc(-c3nnc(C)o3)c3ccccc32)c1` registered an RP-LC retention time of 755 s.

In turn, `Cc1ccc(NS(=O)(=O)c2cc(-c3[nH]ncc3C(=O)N3CCOCC3)oc2C)c(F)c1` came in with an RP-LC retention time of 701 s.

As to `COCCNC(=O)C1CCN(S(C)(=O)=O)c2cc(Cl)ccc2O1` (stereo not given), the RP-LC retention time stood at 710 s.

Consider `CCOC(=O)Cc1ccc(NC(=O)N2CCN(c3nc4ccccc4nc3C(F)(F)F)CC2)cc1`, for which the RP-LC retention time was determined as 1080 s.

On to `COc1ccc(-c2cn3c(CC(=O)N4CCN(c5ccccc5)CC4)csc3n2)cc1OC`, for which the RP-LC retention time amounted to 730 s.

Turning to `O=C(CC1CCN(C(=O)Nc2ccccc2)CC1)N1CCN(c2ccccn2)CC1`, the RP-LC retention time turned out to be 603 s.

Regarding `O=c1nc(SCc2csc(-c3ccccc3)n2)c2c(n1CCCO)CCC2`, the RP-LC retention time was 736 s.

Turning to `CCc1nc2c(NC(=O)COC)cccn2n1`, the RP-LC retention time turned out to be 646 s.

In the case of `Cc1noc([C@@H]2CN(C(=O)c3ccc(Br)o3)C[C@H]2CO)n1`, the RP-LC retention time came to 657 s.

`CCOc1ccc(NC(=O)C2CCN(c3cc(Oc4ccc(CC)cc4)ncn3)CC2)cc1` came in with an RP-LC retention time of 1080 s.

Take `CCc1noc(-c2cc(=O)n(CC(=O)NC(C)CC)c3ccccc23)n1` (stereo not given): the RP-LC retention time came to 816 s.

On to `COc1ccccc1N1C=C(C#N)S(=O)(=O)c2ccccc21`, for which the RP-LC retention time was 871 s.

With `COc1ccc(NC(=O)N2CCCN(C3CCN(Cc4ccc(F)cc4)C3=O)CC2)cc1` (stereo not given), the RP-LC retention time stood at 570 s.

For `COC(=O)CNC(=O)c1cc2c(=O)n(CC(C)C)c3ccccc3n2n1`, the RP-LC retention time came to 807 s.

For `CCCCN(C)C(=O)CC1CCN(c2ccnc(NC)n2)CC1`, the RP-LC retention time was 577 s.

Compound `Clc1ccc(-c2nc(-c3cccc(-c4ccn[nH]4)c3)no2)cc1` yielded an RP-LC retention time of 1090 s.

`CC(C)CCNC(=O)C1CCCN(c2ncnc3c2oc2ccccc23)C1` (stereo not given): the RP-LC retention time is 786 s.

For `CNC(=O)c1csc(NC(=O)Cc2ccc(OC)cc2)n1`, the RP-LC retention time is 634 s.

`Cc1nn(-c2ccc(C(=O)NCc3ccco3)cc2)cc1NC(=O)C(C)C` came in with an RP-LC retention time of 722 s.

In turn, `Cc1ccc2nc3c(c(C(=O)NCC(C)C)c2c1)CCC3` showed an RP-LC retention time of 650 s.

On to `CCN(C(=O)C1CCN(S(=O)(=O)c2ccc3c(c2)NC(=O)CO3)CC1)c1ccccc1`, for which the RP-LC retention time came to 794 s.

Consider `COc1ccc(C(CNC(=O)c2cc(=O)c3ccccc3o2)N(C)C)cc1` (stereo not given), for which the RP-LC retention time was determined as 607 s.

With `Cn1c(N2CCCC(C(=O)NCC3CCN(Cc4cccc(F)c4)CC3)C2)cc(=O)n(C)c1=O` (stereo not given), the RP-LC retention time is 575 s.

`c1ccc2c(OCc3nc4ccccc4[nH]3)cccc2c1`: the RP-LC retention time was 626 s.

For the compound `CCC(=O)N1CCc2cc(N3CC(C(=O)Nc4cc(C)ccc4F)CC3=O)ccc21` (stereo not given), the RP-LC retention time was found to be 768 s.

As to `COc1ccc(-c2noc(C3(NC(=O)c4ccco4)CCCCC3)n2)cc1`, the RP-LC retention time came to 1000 s.

For the compound `Cc1ccc(Cn2c(C)c(CNCc3ccco3)c(C(=O)O)c2C)cc1`, the RP-LC retention time stood at 666 s.

`CC(C)Cn1c(=O)c(N2CCN(C(=O)c3nccc4ccccc34)CC2)nc2ccncc21` had an RP-LC retention time of 646 s.

Compound `c1ccc(O[C@H]2CN(C3CCNCC3)[C@H]2c2ccncc2)cc1` returned an RP-LC retention time of 552 s.

The compound `Cn1c(=O)c(N2CCC(NC(=O)Nc3ccccc3Cl)CC2)nc2cccnc21` yielded an RP-LC retention time of 904 s.

Regarding `COc1ccc(CCNc2nc(-c3ccc(Cl)cc3)cs2)cc1OC`, the RP-LC retention time was determined as 1050 s.

The compound `CS(=O)(=O)Nc1ccc(C2(C(=O)NCc3cccc(F)c3)CCCCC2)cc1` yielded an RP-LC retention time of 887 s.

`Cc1ccc(CNC(=O)C2(C)CCCN(S(=O)(=O)c3ccccc3)C2)cc1` (stereo not given): the RP-LC retention time is 960 s.

With `Cc1cc2[nH]c(C(=O)Nc3cccc(Cl)c3F)c(CN3CCOCC3)c2s1`, the RP-LC retention time worked out at 768 s.
